# Source: patent publication US4832875A, “Vitamin D3 derivative” (Taisho Pharmaceutical Co., Ltd., priority 1985, dated 1989)
# What was measured:
# [1] = system: calcium level in serum in vitamin D-deficient rats; assay: activity of increasing calcium level in serum in vitamin D-deficient rats (oral); type: in vivo, Wistar rats (male); settings: for Percent increase in serum Ca level (control 100%) / Calcium in the serum: po, once a day over 3 days; for Calcium in the serum: control (ethanol) 8.60
# Text: To confirm it in an in vivo (animal) test, however, its action of increasing the blood calcium level in vitamin D-deficient rats was examined.
# Wistar rats (male, three weeks old) purchased from Japan Charles River Co. were fed 3 to 4 weeks with a vitamin D-deficient diet containing calcium (0.02%) and phosphorus (0.99%) to prepare vitamin D-deficient rats. The compound of this invention or 1,25-dihydroxy-26,27-dimethylvitamin D3 was orally administered to these animals once a day over 3 days. On the fourth day, blood was drawn from the animals, and calcium in the serum was measured by atomic absorptiometry.
# As soon as the administration began, the feed was changed to one which was vitamin D-deficient but contained calcium in a normal amount (0.56%).
# [2] = system: calcium level in the serum; settings: as shown in Japanese Laid-Open Patent Publication No. 44860/1986; cited from earlier work
# [3] = system: calcium level in the serum in vitamin D-deficient low-calcium rats; assay: effect of inhibiting dissolution of calcium from bones: calcium level in serum in vitamin D-deficient low-calcium rats (intravenous); type: in vivo, Wistar rats (male); settings: 500 P moles/100 g body weight, one intravenous administration, next day
# Text: Vitamin D has both an action of calcium deposition on bones and an action of liberating calcium from the bones, and promotes bone formation when the balance between these actions is shifted toward the former. Accordingly, a vitamin D derivative which inhibits dissolution of calcium from bones can be expected to have a very strong bone-forming action. In the present test, calcium in the feed was limited to a low level, and under conditions in which no calcium absorption from the intestinal tract occurred, the activity to increase the calcium level in the serum was examined. This activity is considered to reflect calcium dissolution from the bones.
# The following test was conducted in accordance with the method of C. Kaneko et al. [C. Kaneko, S. Yamada, A. Sugimoto, M. Katuta, and S. Sasaki: Steroids, 23, 75 (1974)].
# Three week old Wistar rats (male) were purchased from Japan Charles River Co., and were fed for 19 days with a feed being deficient in vitamin D and containing low calcium (0.02%) to prepare vitamin D-deficient hypocalcemia rats. An ethanol solution of an assay compound was intravenously administered once to the rats. On the next day, blood was drawn from the animals, and the calcium level in the serum was measured by atomic absorptiometry (using a double beam atomic absorption photometer made by Shimazu Seisakusho; Model AA-650).
# [4] = target: T1, 1,25-dihydroxyvitamin D3 receptor in the intestines of chicken embryo (Gallus gallus, UniProt O42392); assay: receptor binding ability (in vitro), 1,25-dihydroxyvitamin D3 receptor, charcoal method
# T1 sequence (O42392 1-451): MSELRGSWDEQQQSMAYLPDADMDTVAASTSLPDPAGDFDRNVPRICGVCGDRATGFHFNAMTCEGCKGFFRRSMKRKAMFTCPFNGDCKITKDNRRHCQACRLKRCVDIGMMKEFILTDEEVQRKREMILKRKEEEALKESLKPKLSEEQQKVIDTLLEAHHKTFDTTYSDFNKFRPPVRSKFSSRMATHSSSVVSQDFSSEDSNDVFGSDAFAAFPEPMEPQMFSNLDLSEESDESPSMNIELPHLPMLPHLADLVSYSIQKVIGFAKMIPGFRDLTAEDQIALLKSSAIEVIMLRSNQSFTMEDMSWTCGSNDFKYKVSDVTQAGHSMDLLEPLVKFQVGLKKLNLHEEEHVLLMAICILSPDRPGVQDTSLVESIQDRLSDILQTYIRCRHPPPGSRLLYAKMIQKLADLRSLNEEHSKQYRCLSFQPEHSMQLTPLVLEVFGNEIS
# Experimental: The mixture was incubated at 0° C. for 3 hours.
# The free assay compound and the assay compound bound to the receptor were separated by the charcoal method.
SMILES,Percent increase in serum Ca level (control 100%) ([1]; 600 P moles/rat) [%],Calcium in the serum ([1]; 600 P moles/rat) [mg/dL],"Percent increase in serum Ca level (control 100%) ([1]; 1,200 P moles/rat) [%]","Calcium in the serum ([1]; 1,200 P moles/rat) [mg/dL]","action of increasing the calcium level in the serum compared with 1α-hydroxyvitamin D3 or 1,25-dihydroxyvitamin D3 (in words) [2]","activity to increase the calcium level in the serum compared with 1,25-dihydroxyvitamin D3 (in words) ([1]; inferred via 1,25-dihydroxy-26,27-dimethylvitamin D3 comparator)","action of increasing the calcium level in the serum (in words) ([1]; vitamin D-deficient rats, oral)",Percent increase in serum Ca level (control 100%) ([3]; control 100%) [%],"Calcium in the serum ([3]; control (ethanol) 4.47, * significant at P <0.05 vs control) [mg/dL]",IC50 [4] [nM]
"C=C1/C(=C\C=C2/CCC[C@]3(C)[C@@H]([C@H](C)CCCC(O)(CC)CC)CC[C@@H]23)C[C@@H](O)C[C@@H]1O [1,25-Dihydroxy-26,27-dimethyl-vitamin D3, 1,25-dihydroxy-26,27-dimethylvitamin D3, reference compound]",105,9.00,112,9.60,"stronger action of increasing the calcium level in the serum than 1α-hydroxyvitamin D3 or 1,25-dihydroxyvitamin D3",,,,,
"C=C1/C(=C\C=C2/CCC[C@]3(C)[C@@H]([C@H](C)CCCC(F)(F)C(C)(C)O)CC[C@@H]23)C[C@@H](O)C[C@@H]1O [Compound of the invention, 1α,25-dihydroxy-24a,24a-difluoro-24-homovitamin D3]",114,9.80,119,10.20,,"stronger than that of 1,25-dihydroxyvitamin D3",shows an action of increasing the calcium level in the serum,94.2,4.21,50
